Laboratory results from US20260250318A1, “COMPOSITIONS AND METHODS FOR CROSSING THE BLOOD BRAIN BARRIER” (VOYAGER THERAPEUTICS, INC., priority 2022, published 2026).

What follows are sequences tested on brain (assay: Maturation of TTM-001 capsid, NGS enrichment in brain of CD-1 Outbred mice). Settings: NGS fold-enrichment of TTM-001 matured AAV capsid variants in the brain of CD-1 Outbred mice; intravenous 1.0×10^12 VG/dose; 14 days in life; RNA; relative to non-matured TTM-001 control.
Format: in vivo
From the text: This Example describes maturation of the TTM-001 (SEQ ID NO: 981 (amino acid) and 983 (DNA), comprising SEQ ID NO: 941) and TTM-002 (SEQ ID NO: 982 (amino acid) and 984 (DNA), comprising SEQ ID NO: 2) capsid variants to further enhance their transduction and biodistribution in the central nervous system and evolve the AAV capsid variants to provide further cross-species compatibility. Two approaches were used to mature the TTM-001 and TTM-002 capsid sequences in order to randomize and mutate within and around the peptide insert comprised within loop IV of the capsid variant. […] In the first maturation approach, sets of three contiguous amino acids were randomized across the mutagenesis region in the TTM-001 and TTM-002 sequences, which spanned from position 450 to position 466, numbered according to SEQ ID NO: 981 and 982. In the second maturation approach, mutagenic primers were used to introduce point mutations at a low frequency, scattered across the mutagenesis region in the TTM-001 and TTM-002 sequences ranging from position 449 to position 466, numbered according to SEQ ID NO: 981 and 982. AAV capsid variants arising from each maturation approach for TTM-001 were pooled together and AAV capsid variants arising from each maturation approach for TTM-002 were also pooled together, for subsequent testing and characterization in mice.
The library of pooled matured AAV capsid variants generated from TTM-001 or library of pooled matured AAV capsid variants generated from the TTM-002 matured AAV capsid variant each were intravenously injected into the tail vein of three female CD-1 Outbred mice (Charles River) at a dose of 1.0×10^12 VG/dose. After 14-days in life, the brains of the mice were isolated and RNA was extracted. Following RNA recovery and RT-PCR amplification, a systematic NGS enrichment analysis was performed to calculate the fold enrichment ratio relative to the corresponding TTM-001 or TTM-002 control, and the peptides comprised within the variants were identified. The data for the TTM-001 matured capsid variants is provided in Table 13 and the data for the TTM-002 matured capsid variants is provided in Table 14.
In the case of KTINGLVSPHCKAQNQQT, the “Fold enrichment over TTM-001” value is reported as 2.605 fold. In the case of KTINGMCSPHSKAQNQQT, the “Fold enrichment over TTM-001” value is reported as 2.006 fold. With KTINGMKSPHSKAQNQQT the “Fold enrichment over TTM-001” value was 2.413 fold. For KTINGMLSPHRKAQNQQT, the “Fold enrichment over TTM-001” value was 2.646 fold. With KTINGMRSPHGKAQNQQT the “Fold enrichment over TTM-001” value was 2.527 fold. With KTINGMRSPHVKAQNQQT the “Fold enrichment over TTM-001” value was 2.937 fold. For KTINGMSSPHRKAQNQQT, the “Fold enrichment over TTM-001” value was 2.352 fold. KTINGNLSPHRKAQNQQT was tested, and the “Fold enrichment over TTM-001” value was 2.250 fold. For KTINGNVSPHRKAQNQQT, the “Fold enrichment over TTM-001” value was 2.043 fold. With KTINGPLSPHCKAQNQQT the “Fold enrichment over TTM-001” value was 2.194 fold. With KTINGPLSPHRKAQNQQT the “Fold enrichment over TTM-001” value was 2.028 fold. In the case of KTINGQRSPHSKAQNQQT, the “Fold enrichment over TTM-001” value is reported as 2.590 fold. In the case of KTINGQRSPHVKAQNQQT, the “Fold enrichment over TTM-001” value is reported as 2.596 fold. For KTINGRASPHVKAQNQQT, the “Fold enrichment over TTM-001” value was 2.272 fold. For KTINGRHSPHLKAQNQQT, the “Fold enrichment over TTM-001” value was 2.369 fold. For KTINGRISPHGKAQNQQT, the “Fold enrichment over TTM-001” value was 2.492 fold. In the case of KTINGRISPHLKAQNQQT, the “Fold enrichment over TTM-001” value is reported as 2.028 fold. KTINGRKSPHSKAQNQQT was tested, and the “Fold enrichment over TTM-001” value was 2.985 fold. In the case of KTINGRLSPHFKAQNQQT, the “Fold enrichment over TTM-001” value is reported as 2.097 fold. With KTINGRLSPHRKAQNQQT the “Fold enrichment over TTM-001” value was 2.238 fold. With KTINGRPSPHIKAQNQQT the “Fold enrichment over TTM-001” value was 2.155 fold. For KTINGRPSPHSKAQNQQT, the “Fold enrichment over TTM-001” value was 2.276 fold. KTINGRPSPHVKAQNQQT was tested, and the “Fold enrichment over TTM-001” value was 2.419 fold. KTINGRQSPHAKAQNQQT was tested, and the “Fold enrichment over TTM-001” value was 2.026 fold. KTINGRQSPHTKAQNQQT was tested, and the “Fold enrichment over TTM-001” value was 2.294 fold. In the case of KTINGRQSPHVKAQNQQT, the “Fold enrichment over TTM-001” value is reported as 2.557 fold. In the case of KTINGRRSPHLKAQNQQT, the “Fold enrichment over TTM-001” value is reported as 2.391 fold. For KTINGRRSPHTKAQNQQT, the “Fold enrichment over TTM-001” value was 2.069 fold. With KTINGRSSPHFKAQNQQT the “Fold enrichment over TTM-001” value was 2.428 fold. In the case of KTINGRSSPHGKAQNQQT, the “Fold enrichment over TTM-001” value is reported as 3.035 fold. With KTINGRSSPHPKAQNQQT the “Fold enrichment over TTM-001” value was 2.596 fold. KTINGRSSPHRKAQNQQT was tested, and the “Fold enrichment over TTM-001” value was 2.965 fold. KTINGRTSPHAKAQNQQT was tested, and the “Fold enrichment over TTM-001” value was 2.060 fold. With KTINGRYSPHSKAQNQQT the “Fold enrichment over TTM-001” value was 2.080 fold. KTINGSASPHVFAQNQQT was tested, and the “Fold enrichment over TTM-001” value was 2.186 fold. With KTINGSASPHWSAQNQQT the “Fold enrichment over TTM-001” value was 2.121 fold. In the case of KTINGSCSPHLAAQNQQT, the “Fold enrichment over TTM-001” value is reported as 2.134 fold. For KTINGSCSPHLRAQNQQT, the “Fold enrichment over TTM-001” value was 2.423 fold. In the case of KTINGSCSPHPLAQNQQT, the “Fold enrichment over TTM-001” value is reported as 3.086 fold. KTINGSCSPHRKAQNQQT was tested, and the “Fold enrichment over TTM-001” value was 4.801 fold. With KTINGSCSPHSGAQNQQT the “Fold enrichment over TTM-001” value was 2.994 fold. For KTINGSCSPHSLAQNQQT, the “Fold enrichment over TTM-001” value was 2.099 fold. For KTINGSCSPHVRAQNQQT, the “Fold enrichment over TTM-001” value was 2.406 fold. For KTINGSESPHDSAQNQQT, the “Fold enrichment over TTM-001” value was 2.164 fold. In the case of KTINGSGSPHAFLQNQQT, the “Fold enrichment over TTM-001” value is reported as 2.475 fold. In the case of KTINGSGSPHALFQNQQT, the “Fold enrichment over TTM-001” value is reported as 2.261 fold. For KTINGSGSPHCLAQNQQT, the “Fold enrichment over TTM-001” value was 4.847 fold. In the case of KTINGSGSPHCLLQNQQT, the “Fold enrichment over TTM-001” value is reported as 4.898 fold. For KTINGSGSPHCLSQNQQT, the “Fold enrichment over TTM-001” value was 2.114 fold. With KTINGSGSPHCSAQNQQT the “Fold enrichment over TTM-001” value was 2.339 fold. KTINGSGSPHCSLQNQQT was tested, and the “Fold enrichment over TTM-001” value was 4.540 fold. KTINGSGSPHCSSQNQQT was tested, and the “Fold enrichment over TTM-001” value was 2.253 fold. In the case of KTINGSGSPHCTLQNQQT, the “Fold enrichment over TTM-001” value is reported as 2.497 fold. For KTINGSGSPHCVAQNQQT, the “Fold enrichment over TTM-001” value was 2.080 fold. In the case of KTINGSGSPHEHNQNQQT, the “Fold enrichment over TTM-001” value is reported as 2.199 fold. With KTINGSGSPHELPQNQQT (KTINGSGSPHFLPQNQQT) the “Fold enrichment over TTM-001” value was 2.123 fold. KTINGSGSPHFHLQNQQT was tested, and the “Fold enrichment over TTM-001” value was 2.121 fold. For KTINGSGSPHFLLQNQQT, the “Fold enrichment over TTM-001” value was 2.758 fold. KTINGSGSPHFLNQNQQT was tested, and the “Fold enrichment over TTM-001” value was 2.359 fold. KTINGSGSPHFLRQNQQT was tested, and the “Fold enrichment over TTM-001” value was 4.777 fold. In the case of KTINGSGSPHFMRQNQQT, the “Fold enrichment over TTM-001” value is reported as 2.123 fold. For KTINGSGSPHGLWQNQQT, the “Fold enrichment over TTM-001” value was 2.181 fold. KTINGSGSPHGWAQNQQT was tested, and the “Fold enrichment over TTM-001” value was 2.121 fold. KTINGSGSPHIYLQNQQT was tested, and the “Fold enrichment over TTM-001” value was 2.542 fold. For KTINGSGSPHIYRQNQQT, the “Fold enrichment over TTM-001” value was 2.782 fold. KTINGSGSPHLCLQNQQT was tested, and the “Fold enrichment over TTM-001” value was 3.425 fold. KTINGSGSPHLFRQNQQT was tested, and the “Fold enrichment over TTM-001” value was 2.324 fold. For KTINGSGSPHLKRQNQQT, the “Fold enrichment over TTM-001” value was 2.564 fold. KTINGSGSPHLLFQNQQT was tested, and the “Fold enrichment over TTM-001” value was 2.069 fold. With KTINGSGSPHLLWQNQQT the “Fold enrichment over TTM-001” value was 3.855 fold. In the case of KTINGSGSPHLLYQNQQT, the “Fold enrichment over TTM-001” value is reported as 2.983 fold. KTINGSGSPHLNWQNQQT was tested, and the “Fold enrichment over TTM-001” value was 3.112 fold. With KTINGSGSPHLRFQNQQT the “Fold enrichment over TTM-001” value was 2.186 fold. In the case of KTINGSGSPHLRRQNQQT, the “Fold enrichment over TTM-001” value is reported as 3.493 fold. With KTINGSGSPHLSCQNQQT the “Fold enrichment over TTM-001” value was 2.277 fold. KTINGSGSPHLSWQNQQT was tested, and the “Fold enrichment over TTM-001” value was 3.047 fold. For KTINGSGSPHLTWQNQQT, the “Fold enrichment over TTM-001” value was 2.637 fold. For KTINGSGSPHLVCQNQQT, the “Fold enrichment over TTM-001” value was 2.493 fold. With KTINGSGSPHLVFQNQQT the “Fold enrichment over TTM-001” value was 2.376 fold. KTINGSGSPHLWSQNQQT was tested, and the “Fold enrichment over TTM-001” value was 3.857 fold. With KTINGSGSPHLWTQNQQT the “Fold enrichment over TTM-001” value was 3.034 fold. In the case of KTINGSGSPHLYGQNQQT, the “Fold enrichment over TTM-001” value is reported as 2.277 fold. With KTINGSGSPHLYMQNQQT the “Fold enrichment over TTM-001” value was 2.615 fold. For KTINGSGSPHMYAQNQQT, the “Fold enrichment over TTM-001” value was 2.060 fold. In the case of KTINGSGSPHMYLQNQQT, the “Fold enrichment over TTM-001” value is reported as 3.061 fold. KTINGSGSPHPFLQNQQT was tested, and the “Fold enrichment over TTM-001” value was 2.916 fold. With KTINGSGSPHPLFQNQQT the “Fold enrichment over TTM-001” value was 2.233 fold. KTINGSGSPHPYAQNQQT was tested, and the “Fold enrichment over TTM-001” value was 2.598 fold. In the case of KTINGSGSPHRFKQNQQT, the “Fold enrichment over TTM-001” value is reported as 2.223 fold. KTINGSGSPHRFRQNQQT was tested, and the “Fold enrichment over TTM-001” value was 3.698 fold. For KTINGSGSPHRLRQNQQT, the “Fold enrichment over TTM-001” value was 2.998 fold. KTINGSGSPHRRLQNQQT was tested, and the “Fold enrichment over TTM-001” value was 2.030 fold. In the case of KTINGSGSPHRRMQNQQT, the “Fold enrichment over TTM-001” value is reported as 2.004 fold. In the case of KTINGSGSPHRRRQNQQT, the “Fold enrichment over TTM-001” value is reported as 3.754 fold. With KTINGSGSPHRRSQNQQT the “Fold enrichment over TTM-001” value was 2.497 fold. In the case of KTINGSGSPHRSRQNQQT, the “Fold enrichment over TTM-001” value is reported as 2.270 fold. KTINGSGSPHRTRQNQQT was tested, and the “Fold enrichment over TTM-001” value was 3.190 fold. In the case of KTINGSGSPHRWAQNQQT, the “Fold enrichment over TTM-001” value is reported as 2.350 fold. In the case of KTINGSGSPHSALWNQQT, the “Fold enrichment over TTM-001” value is reported as 2.261 fold. For KTINGSGSPHSCAQNQQT, the “Fold enrichment over TTM-001” value was 2.030 fold. In the case of KTINGSGSPHSCLLNQQT, the “Fold enrichment over TTM-001” value is reported as 3.127 fold. In the case of KTINGSGSPHSCLQNQQT, the “Fold enrichment over TTM-001” value is reported as 3.559 fold. KTINGSGSPHSCSQNQQT was tested, and the “Fold enrichment over TTM-001” value was 3.428 fold. With KTINGSGSPHSEIVNQQT the “Fold enrichment over TTM-001” value was 4.931 fold. For KTINGSGSPHSFARNQQT, the “Fold enrichment over TTM-001” value was 2.367 fold.
